In patent US4122184A, “Benzimidazole insecticides” (priority 1977, dated 1978):

How the values were obtained:
[1] = test system: Boll Weevil; assay: Field trial (first summer), topical; type: in vivo, Anthonomus grandis
Protocol: In a variation of the above test, 1 microliter of a test solution containing a predetermined number of micrograms of benzimidazole was applied directly to larvae or adult insects.
During the previous summer similar field trials were conducted employing the same tests as heretofore but with some additional species of insects not included in the later tests. The results listed below are for tests in which an insect mortality was established by a given application route and at a given concentration in a particular test. The same 0 - 9 scoring system is used as is the designation of compounds by alphabetical symbols.

[2] = test system: Squash Bug Adults; assay: Field trial, contact poison test; type: in vivo; design: key: 0-9 rating: 0 = 0-10% mortality, 9 = 91-100% mortality
How it was run: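 Read-out: mortality rating 0–9 (0 = 0-10 percent, 9 = 91-100 percent) at 24/48/72 h, averaged per concentration. Insects were sprayed on potted-in-water host plants using an atomizer at 10 psi, with dead insects caught on paper below.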

[3] = test system: Bean Leaf Beetle; assay: Field trial, stomach poison test; type: in vivo
How it was run: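 Spray (10 psi) or dip leaves from infested plants in test solution; air-dry; put in Petri dish; add 5 or 10 insects; score mortality 0–9 at 24/48/72 h. 1–2 reps, usually 2–3 rates.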

[4] = test system: Yellow Mealworm Larvae; assay: Field trial, topical application; type: in vivo; design: key: 0 = 0-10% mortality, 9 = 91-100% mortality (0-9 scale)
How it was run: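 1 μL benzimidazole solution of set microgram content applied topically to larvae or adults. Mortality read at 24, 48 and 72 h where applicable, rated 0-9 (0 = 0-10%, 9 = 91-100%); values are average mortality per concentration.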

[5] = test system: Southern Armyworm; assay: Southern Armyworm Test; type: in vivo, Prodenia eridania (Lepidoptera); conditions: 48 h
Protocol: Ten uniform Southern armyworm larvae about 1-1.5 cm. in length, grown on Henderson lima beans, are placed on excized bean leaves in petri dishes. The bean leaves are obtained and sprayed with the insecticide in the same way as are the snap bean leaves in the Mexican bean beetle test. The reference standards in this instance are leaves sprayed with 5 ml. 100 ppm DDT solution. Mortality counts are made 48 hours after spraying and again moribund larvae are counted as dead. Missing larvae which have probably been eaten are considered alive. The same rating scale is used as in the Mexican bean beetle test.

[6] = test system: Melon Aphid; assay: Melon Aphid Test; type: in vivo, Aphis gossypii (Hemiptera); conditions: 24 h
Excerpt: Four blue hubbard squash seeds are planted per container in vermiculite and the containers watered from the bottom. After 6 days, the two weakest plants are cut off and one cotyledon and the primary leaves are removed from each of the two remaining plants. The remaining cotyledon is infested with 100 melon aphids from a stock colony by pinning the cotyledon against an aphid-infested squash cotyledon from the colony and allowing the aphids to transfer. After transfer, the colony leaf is removed. Forty-eight hours later, the infested leaves are sprayed to wetting with formulations containing graded amounts of the insecticide using a DeVilbiss atomizer at 10 psi held at 12-15 inches from the plant. Controls consist of two infested, unsprayed squash plants and two infested plants sprayed to wetting with a formulation containing 100 ppm malathion as a reference standard. The mortality is estimated 24 hours after spraying by observation using a 10 power dissecting microscope. The same rating scale is used as before.

[7] = test system: Mexican Bean Beetle; assay: Mexican Bean Beetle Test; type: in vivo, Epilachna varivestis (Coleoptera); conditions: 48 h
Protocol: Cuttings of four six-day old Bountiful snap bean plants containing two leaves with approximately 5 square inches of leaf surface, are placed in water. The leaves are sprayed to wetting with about 5-10 ml. of a formulation containing a pre-determined level of the test compound. Half of the formulation is sprayed on the top surface and half on the bottom surface of the leaf using a DeVilbiss atomizer at 10 psi held at a distance of about 18 inches from the leaf. After the leaves have dried, they are cut from the stem and placed separately in petri dishes. Ten third instar, nonmolting Mexican bean beetle larvae grown on Bountiful snap beans are placed on each leaf. Controls consist of two leaves sprayed with 5 ml. of a 500 ppm malathion formulation (reference standard), two leaves sprayed with the formulation without the active ingredient and two leaves are held as untreated controls. After 48 hours, a mortality count is made and the amount of feeding noted. Moribund larvae are counted as dead.

[8] = test system: Milkweed Bug; assay: Milkweed Bug Test; type: in vivo, Oncopeltis fasciatus (Hemiptera); conditions: 48 h
Protocol: Ten adult milkweed bugs are chilled and placed in a test cage. The cages containing the bugs are sprayed with 5 ml. of a test formulation containing a pre-determined amount of the insecticide, using a DeVilbiss atomizer at 10 psi held 33 inches from the top of the cage. After the cage has been allowed to dry, the bugs are fed and watered for 48 hours. A formulation containing 500 ppm of malathion is used as a reference standard and two unsprayed cages are kept as controls. Mortality counts are made 48 hours after spraying. Moribund adults are considered dead. The same rating scale is employed as before.

Compound: O=[N+]([O-])c1cc(C(F)(F)F)cc2nc(C(F)(F)F)[nH]c12 [A, 2,6-bis(trifluoromethyl)-4-nitrobenzimidazole]
- insect mortality rating ([1]; .078125 μg/μl): 9 (91-100 percent mortality)
- average mortality rating ([2]; 125 ppm): 0 (0-10 percent)
- average mortality rating ([2]; 250 ppm): 6
- average mortality rating ([2]; 500 ppm): 9 (91-100 percent mortality)
- average mortality rating ([2]; 750 ppm): 9 (91-100 percent mortality)
- average mortality rating ([3]; 10 ppm): 0 (0-10 percent)
- average mortality rating ([3]; 25 ppm): 0 (0-10 percent)
- average mortality rating ([3]; 50 ppm): 1
- average mortality rating ([4]; 0.03 μg/μl): 3
- average mortality rating ([4]; 0.07 μg/μl): 5
- average mortality rating ([4]; 0.15 μg/μl): 5

Compound: CCCCCCOC(=O)n1c(C(F)(F)F)nc2c([N+](=O)[O-])cc(C(F)(F)F)cc21 [E, n-hexyl 2,6-bis(trifluoromethyl)-4-nitro-1-benzimidazolecarboxylate]
- mortality rating ([5]; 500 ppm): 5.0
- mortality rating ([5]; 1000 ppm): 7.5
- mortality rating ([6]; 5 ppm): 1.5
- mortality rating ([6]; 100 ppm): 9.5
- mortality rating ([7]; 5 ppm): 2.5
- mortality rating ([7]; 10 ppm): 7.5
- insect mortality rating ([1]; .15625 μg/μl): 9 (91-100 percent mortality)
- average mortality rating ([2]; 125 ppm): 0 (0-10 percent)
- average mortality rating ([2]; 250 ppm): 2
- average mortality rating ([2]; 500 ppm): 3
- average mortality rating ([2]; 750 ppm): 6
- mortality rating ([8]; 10 ppm): .5
- mortality rating ([8]; 25 ppm): 6.5
- mortality rating ([8]; 50 ppm): 1.5
- average mortality rating ([3]; 10 ppm): 0 (0-10 percent)
- average mortality rating ([3]; 25 ppm): 1
- average mortality rating ([3]; 50 ppm): 0 (0-10 percent)
- average mortality rating ([4]; 0.03 μg/μl): 2
- average mortality rating ([4]; 0.07 μg/μl): 3
- average mortality rating ([4]; 0.15 μg/μl): 4

Compound: CC(C)OC(=O)n1c(C(F)(F)F)nc2c([N+](=O)[O-])cc(C(F)(F)F)cc21 [I, isopropyl 2,6-bis(trifluoromethyl)-4-nitro-1-benzimidazolecarboxylate]
- mortality rating ([6]; 50 ppm): 8.5
- mortality rating ([6]; 250 ppm): 6.5
- mortality rating ([7]; 25 ppm): 6.5
- average mortality rating ([2]; 125 ppm): 3
- average mortality rating ([2]; 250 ppm): 1
- average mortality rating ([2]; 500 ppm): 0 (0-10 percent)
- average mortality rating ([2]; 750 ppm): 0 (0-10 percent)
- average mortality rating ([3]; 10 ppm): 0 (0-10 percent)
- average mortality rating ([3]; 25 ppm): 1
- average mortality rating ([3]; 50 ppm): 3

Compound: O=[N+]([O-])c1cc(C(F)(F)F)cc2[nH]c(C(F)(F)Cl)nc12 [L, 2-chlorodifluoromethyl-4-nitro-6-trifluoromethylbenzimidazole]
- mortality rating ([5]; 500 ppm): 1.5
- mortality rating ([6]; 25 ppm): 5.5
- mortality rating ([7]; 50 ppm): 8.5
- average mortality rating ([2]; 125 ppm): 0 (0-10 percent)
- average mortality rating ([2]; 250 ppm): 6
- average mortality rating ([2]; 500 ppm): 6
- average mortality rating ([2]; 750 ppm): 9 (91-100 percent mortality)
- mortality rating ([8]; 100 ppm): 4.5
- average mortality rating ([3]; 10 ppm): 1
- average mortality rating ([3]; 25 ppm): 1
- average mortality rating ([3]; 50 ppm): 0 (0-10 percent)
- average mortality rating ([4]; 0.03 μg/μl): 5
- average mortality rating ([4]; 0.07 μg/μl): 5
- average mortality rating ([4]; 0.15 μg/μl): 9 (91-100 percent mortality)

Compound: mixture of N,N-dimethyl-4-nitro-2,6-bis(trifluoromethyl)thio-1-benzimidazolecarboxamide and N,N-dimethyl-7-nitro-2,5-bis(trifluoromethyl)thio-1-benzimidazolecarboxamide [P]
- mortality rating ([5]; 250 ppm): 0 (0-10)
- mortality rating ([5]; 500 ppm): 0 (0-10)
- mortality rating ([5]; 1000 ppm): 3.5
- mortality rating ([6]; 10 ppm): 0 (0-10)
- mortality rating ([6]; 25 ppm): 1.5
- mortality rating ([6]; 100 ppm): 4 (41-50)
- mortality rating ([6]; 250 ppm): 7 (71-80)
- mortality rating ([6]; 500 ppm): 7.5
- mortality rating ([6]; 1000 ppm): 4.5
- mortality rating ([7]; 10 ppm): 0 (0-10)
- mortality rating ([7]; 25 ppm): 0 (0-10)
- mortality rating ([7]; 50 ppm): 4.5
- mortality rating ([7]; 100 ppm): 7 (71-80)
- mortality rating ([7]; 250 ppm): 7.5
- mortality rating ([7]; 500 ppm): 8.5
- mortality rating ([7]; 1000 ppm): 9 (91-100)
- insect mortality rating ([1]; .078125 μg/μl): 9 (91-100 percent mortality)
- mortality rating ([8]; 10 ppm): 0 (0-10)
- mortality rating ([8]; 25 ppm): 0 (0-10)
- mortality rating ([8]; 50 ppm): 3.5
- mortality rating ([8]; 100 ppm): 4.5
- mortality rating ([8]; 250 ppm): 4 (41-50)
- mortality rating ([8]; 500 ppm): 4 (41-50)
- mortality rating ([8]; 1000 ppm): 2 (21-30)

Compound: mixture of benzyl 2,6-bis(trifluoromethyl)-4-nitro-1-benzimidazolecarboxylate and benzyl 2,5-bis(trifluoromethyl)-7-nitro-1-benzimidazolecarboxylate
- mortality rating ([5]; 100 ppm): 2 (21-30)
- mortality rating ([5]; 500 ppm): 6 (61-70)
- mortality rating ([5]; 1000 ppm): 7 (71-80)
- mortality rating ([6]; 100 ppm): 0 (0-10)
- mortality rating ([6]; 250 ppm): 5 (51-60)
- mortality rating ([6]; 500 ppm): 9 (91-100)
- mortality rating ([6]; 1000 ppm): 8 (81-90)
- mortality rating ([7]; 50 ppm): 9 (91-100)
- mortality rating ([7]; 100 ppm): 9 (91-100)
- mortality rating ([7]; 250 ppm): 9 (91-100)
- mortality rating ([7]; 500 ppm): 9 (91-100)
- mortality rating ([7]; 1000 ppm): 9 (91-100)
- insect mortality rating ([1]; .078125 μg/μl): 9 (91-100 percent mortality)
- mortality rating ([8]; 10 ppm): 0 (0-10)
- mortality rating ([8]; 25 ppm): 0 (0-10)
- mortality rating ([8]; 50 ppm): 7 (71-80)
- mortality rating ([8]; 250 ppm): 8 (81-90)
- mortality rating ([8]; 500 ppm): 8.5
- mortality rating ([8]; 1000 ppm): 9 (91-100)
- average mortality rating ([3]; 10 ppm): 0 (0-10 percent)
- average mortality rating ([3]; 25 ppm): 1
- average mortality rating ([3]; 50 ppm): 2
- average mortality rating ([4]; 0.03 μg/μl): 1
- average mortality rating ([4]; 0.07 μg/μl): 4
- average mortality rating ([4]; 0.15 μg/μl): 5

Compound: mixture of methyl 2,6-bis(trifluoromethyl)-4-nitro-1-benzimidazolecarboxylate and methyl 2,5-bis(trifluoromethyl)-7-nitro-1-benzimidazolecarboxylate
- mortality rating ([5]; 1000 ppm): 1 (11-20)
- mortality rating ([6]; 25 ppm): 0 (0-10)
- mortality rating ([6]; 50 ppm): 2 (21-30)
- mortality rating ([6]; 100 ppm): 4 (41-50)
- mortality rating ([6]; 250 ppm): 9 (91-100)
- mortality rating ([6]; 500 ppm): 9 (91-100)
- mortality rating ([6]; 1000 ppm): 9 (91-100)
- mortality rating ([7]; 5 ppm): 0 (0-10)
- mortality rating ([7]; 10 ppm): 9 (91-100)
- mortality rating ([7]; 25 ppm): 9 (91-100)
- mortality rating ([7]; 50 ppm): 9 (91-100)
- mortality rating ([7]; 100 ppm): 9 (91-100)
- mortality rating ([7]; 250 ppm): 9 (91-100)
- mortality rating ([7]; 500 ppm): 9 (91-100)
- mortality rating ([7]; 1000 ppm): 9 (91-100)
- insect mortality rating ([1]; .078125 μg/μl): 9 (91-100 percent mortality)
- average mortality rating ([2]; 125 ppm): 0 (0-10 percent)
- average mortality rating ([2]; 250 ppm): 0 (0-10 percent)
- average mortality rating ([2]; 500 ppm): 2
- average mortality rating ([2]; 750 ppm): 3
- mortality rating ([8]; 25 ppm): 5 (51-60)
- mortality rating ([8]; 100 ppm): 8 (81-90)
- mortality rating ([8]; 250 ppm): 9 (91-100)
- mortality rating ([8]; 500 ppm): 9 (91-100)
- mortality rating ([8]; 1000 ppm): 9 (91-100)
- average mortality rating ([3]; 10 ppm): 1
- average mortality rating ([3]; 25 ppm): 0 (0-10 percent)
- average mortality rating ([3]; 50 ppm): 1
- average mortality rating ([4]; 0.03 μg/μl): 2
- average mortality rating ([4]; 0.07 μg/μl): 3
- average mortality rating ([4]; 0.15 μg/μl): 6
